Reference: US20180327367A1, “MACROCYCLIC BROAD SPECTRUM ANTIBIOTICS” (priority 2015, published 2018)
In brackets after ≈: the same amount, converted by molar mass. Where two headings read alike, the source gives them in different places.

Tests used:
Format in all cases: cell-based
[1] = test system: Methicillin Resistant Staphylococcus aureus strain USA 300, NRS384; assay: Minimum inhibitory concentration, broth micro-dilution (CLSI), S. aureus; details: Staphylococcus aureus, MRSA / NRS 384 / USA300, 22 h
Experimental: (§1) In vitro antimicrobial activity of each compound was determined by measuring minimal inhibitor concentrations (MICs) using the broth micro-dilution technique as approved by the Clinical and Laboratory Standards Institute (CLSI) (Methods for Dilution Antimicrobial Susceptibility Tests for Bacteria that Grow Aerobically; Approved Standard—Eighth Edition. CLSI document M07-A8. Wayne, Pa.: Clinical and Laboratory Standards; 2009). Antibacterial activity was measure against three strains of bacteria: a Methicillin Resistant Staphylococcus aureus strain USA 300, NRS384 (S. aureus); a strain of Escherichia coli MC4100 harboring the IMP4213 (E. coli IMP), which results in increased outer-membrane permeability (B Martin and Silhavy T. Imp/OstA is required for cell envelope biogenesis in Escherichia coli. (2002) Molecular Microbiology, 45(5), 1289-1302), and Escherichia coli ATCC 25922 (E. coli), a clinically relevant Gram-negative strain. Cells were inoculated onto plates of Trypyticase Soy Agar or Luria Agar respectively and grown at 35° C. for 20 hours. Inocula suspensions were prepared by scraping cells into 1 mL of testing media (cation adjusted Mueller Hinton Broth supplemented with 0.002% v/v Tween-80) and diluting to a final OD600 nm of 0.01.
(§2) Test compounds were prepared in DMSO at a concentration of 10 mg/mL. […] In protocol 2, the compound stocks were diluted into testing media at a concentration of 4 μg/mL and serial 2-fold dilutions were made in the same media, in 96-well U bottom microtiter dishes, for a total of 10 compound concentrations. In protocol 3, compound stocks were diluted into testing media at a concentration of 0.5 μg/mL, with serial 2-fold dilutions conducted as described above. […] Inocula suspensions were added to the 2-fold serial dilutions of test compounds to a final density of OD OD600 nm of 0.0005 and incubated at 35° C. for 22 hours.

[2] = test system: Escherichia coli MC4100 harboring the IMP4213 (E. coli IMP); assay: microbe, parasite or virus in culture; details: Escherichia coli, 22 h
Experimental: as §1, §2

[3] = test system: Escherichia coli ATCC 25922; assay: Minimum inhibitory concentration, broth micro-dilution (CLSI), E. coli; details: Escherichia coli, ATCC25922, 22 h
Experimental: Cells were inoculated onto plates of Trypyticase Soy Agar or Luria Agar respectively and grown at 35° C. for 20 hours. Inocula suspensions were prepared by scraping cells into 1 mL of testing media (cation adjusted Mueller Hinton Broth supplemented with 0.002% v/v Tween-80) and diluting to a final OD600 nm of 0.01.
as §2

[4] = MRSA USA 300 NRS384, 35° C., 22 hours, read-out: MIC (μg/mL) S. aureus
[5] = read-out: MIC (μg/mL) E. coli IMP, E. coli MC4100 IMP4213, increased outer-membrane permeability, 35° C., 22 hours
[6] = E. coli ATCC 25922, 35° C., 22 hours, read-out: MIC (μg/mL) E. coli
[7] = read-out: MIC (μg/mL) S. aureus, MRSA USA 300 NRS384, 35° C., 22 hours
[8] = read-out: MIC (μg/mL) E. coli, E. coli ATCC 25922, 35° C., 22 hours

Row | SMILES | MIC [1, 4] | MIC [2, 5] | MIC [3, 6] | MIC [1, 7] | MIC [3, 8] | MIC ([1]; read-out: MIC (μg/mL) S. aureus) | MIC ([2]; read-out: MIC (μg/mL) E. coli IMP) | MIC ([3]; read-out: MIC (μg/mL) E. coli)
1 | CCCCCCCc1ccc(C(=O)N[C@@H](CCN)C(=O)N(C)[C@@H]2C(=O)N[C@@H](C)C(=O)N[C@H](C(=O)NCC#N)Cc3ccc(OCCN)c(c3)-c3cc2ccc3O)c(C)c1 [Compound 315] | 0.078 µg/mL (≈ 0.0962 µM) | 0.014 µg/mL (≈ 0.0173 µM) | 0.38 µg/mL (≈ 0.469 µM) |  |  |  |  | 
2 | CCCCCCCCCCCCCC(=O)N[C@@H](CCN)C(=O)N(C)[C@@H]1C(=O)N[C@@H](C)C(=O)N[C@H](C(=O)NCC#N)Cc2ccc(OCC(=O)O)c(c2)-c2cc1ccc2OCCN [Compound 327] | 0.25 µg/mL (≈ 0.29 µM) | 0.0078 µg/mL (≈ 0.00904 µM) | 2 µg/mL (≈ 2.32 µM) |  |  |  |  | 
3 | CCCCCCCCCCCCCC(=O)N[C@@H](CCN)C(=O)N(C)[C@@H]1C(=O)N[C@@H](C)C(=O)N[C@H](C(=O)NCC#N)Cc2ccc(OCC(=O)OC(C)(C)C)c(c2)-c2cc1ccc2OCCN [Compound 328] | 1 µg/mL (≈ 1.09 µM) | 0.25 µg/mL (≈ 0.272 µM) | 4 µg/mL (≈ 4.35 µM) |  |  |  |  | 
4 | CCCCCCc1ccc(S(=O)(=O)N[C@@H](CCN)C(=O)N(C)[C@@H]2C(=O)N[C@@H](C)C(=O)N[C@H](C(=O)NCC#N)Cc3ccc(OCCN)c(c3)-c3cc2ccc3OCCN)c(C)c1 [Compound 347] |  | 0.063 µg/mL (≈ 0.0719 µM) |  | 0.063 µg/mL (≈ 0.0719 µM) | 8 µg/mL (≈ 9.13 µM) |  |  | 
5 | CCCCCCCCCCNCCS(=O)(=O)N[C@@H](CCCN)C(=O)N(C)[C@@H]1C(=O)N[C@@H](C)C(=O)N[C@H](C(=O)NCC#N)Cc2ccc(OCCN)c(c2)-c2cc1ccc2OCCN [Compound 349] | 0.016 µg/mL (≈ 0.0178 µM) | 0.13 µg/mL (≈ 0.145 µM) | 8 µg/mL (≈ 8.9 µM) |  |  |  |  | 
6 | CCCCCCCCCCNCCS(=O)(=O)N(C)[C@@H]1C(=O)N[C@@H](C)C(=O)N[C@H](C(=O)NCC#N)Cc2ccc(OCCN)c(c2)-c2cc1ccc2OCCN [Compound 351] | 1 µg/mL (≈ 1.27 µM) | > 4 µg/mL | > 64 µg/mL |  |  |  |  | 
7 | CCCCCCCCCC(=O)N[C@H](C(=O)N[C@@H](CCN)C(=O)N(C)[C@@H]1C(=O)N[C@@H](C)C(=O)N[C@H](C(=O)NCC#N)Cc2ccc(OCCN)c(c2)-c2cc1ccc2OCCN)[C@@H](C)O [Compound 356] |  | 0.13 µg/mL (≈ 0.146 µM) |  | 0.094 µg/mL (≈ 0.105 µM) | 12 µg/mL (≈ 13.4 µM) |  |  | 
8 | CCCCCCCCCC(=O)N[C@H](CO)C(=O)N[C@@H](CCN)C(=O)N(C)[C@@H]1C(=O)N[C@@H](C)C(=O)N[C@H](C(=O)NCC#N)Cc2ccc(OCCN)c(c2)-c2cc1ccc2OCCN [Compound 359] |  | 0.13 µg/mL (≈ 0.148 µM) |  | 0.063 µg/mL (≈ 0.0717 µM) | 16 µg/mL (≈ 18.2 µM) |  |  | 
9 | CCCCCCCCCNC(=O)CC(=O)N[C@@H](CCN)C(=O)N(C)[C@@H]1C(=O)N[C@@H](C)C(=O)N[C@H](C(=O)NCC#N)Cc2ccc(OCCN)c(c2)-c2cc1ccc2OCCN [Compound 361] | 0.13 µg/mL (≈ 0.153 µM) | 0.13 µg/mL (≈ 0.153 µM) | 16 µg/mL (≈ 18.8 µM) |  |  |  |  | 
10 | CCCCCCCCCC(=O)NCC(=O)NCC(=O)N[C@@H](CCN)C(=O)N(C)[C@@H]1C(=O)N[C@@H](C)C(=O)N[C@H](C(=O)NCC#N)Cc2ccc(OCCN)c(c2)-c2cc1ccc2OCCN [Compound 362] |  | 0.5 µg/mL (≈ 0.552 µM) |  | 0.25 µg/mL (≈ 0.276 µM) | 32 µg/mL (≈ 35.3 µM) |  |  | 
11 | CCCCCCCCCC(=O)N[C@@H](C)C(=O)NCC(=O)N[C@@H](CCN)C(=O)N(C)[C@@H]1C(=O)N[C@@H](C)C(=O)N[C@H](C(=O)NCC#N)Cc2ccc(OCCN)c(c2)-c2cc1ccc2OCCN [Compound 363] |  | 0.5 µg/mL (≈ 0.543 µM) |  | 0.25 µg/mL (≈ 0.272 µM) | 64 µg/mL (≈ 69.6 µM) |  |  | 
12 | CCCCCCCCCC(=O)N[C@@H](C)C(=O)NCCC(=O)N[C@@H](CCN)C(=O)N(C)[C@@H]1C(=O)N[C@@H](C)C(=O)N[C@H](C(=O)NCC#N)Cc2ccc(OCCN)c(c2)-c2cc1ccc2OCCN [Compound 364] | 0.38 µg/mL (≈ 0.407 µM) | 0.75 µg/mL (≈ 0.803 µM) | 48 µg/mL (≈ 51.4 µM) |  |  |  |  | 
13 | CCCCCCCCCC(=O)N[C@H](C)C(=O)NCCC(=O)N[C@@H](CCN)C(=O)N(C)[C@@H]1C(=O)N[C@@H](C)C(=O)N[C@H](C(=O)NCC#N)Cc2ccc(OCCN)c(c2)-c2cc1ccc2OCCN [Compound 365] | 0.38 µg/mL (≈ 0.407 µM) | 0.5 µg/mL (≈ 0.535 µM) | 64 µg/mL (≈ 68.5 µM) |  |  |  |  | 
14 | CCCCCCCCCC(=O)NCCC(=O)NCC(=O)N[C@@H](CCN)C(=O)N(C)[C@@H]1C(=O)N[C@@H](C)C(=O)N[C@H](C(=O)NCC#N)Cc2ccc(OCCN)c(c2)-c2cc1ccc2OCCN [Compound 368] |  | 1 µg/mL (≈ 1.09 µM) |  | 0.25 µg/mL (≈ 0.272 µM) | 64 µg/mL (≈ 69.6 µM) |  |  | 
15 | CCCCCCCCCC(=O)N[C@H](C)C(=O)N[C@@H](CCN)C(=O)N(C)[C@@H]1C(=O)N[C@@H](C)C(=O)N[C@H](C(=O)NCC#N)Cc2ccc(OCCN)c(c2)-c2cc1ccc2OCCN [Compound 374] |  | 0.13 µg/mL (≈ 0.151 µM) |  | 0.19 µg/mL (≈ 0.22 µM) | 16 µg/mL (≈ 18.5 µM) |  |  | 
16 | CCCCCCCCCC(=O)NCCC(=O)NCCC(=O)N[C@@H](CCN)C(=O)N(C)[C@@H]1C(=O)N[C@@H](C)C(=O)N[C@H](C(=O)NCC#N)Cc2ccc(OCCN)c(c2)-c2cc1ccc2OCCN [Compound 376] | 0.5 µg/mL (≈ 0.535 µM) | 2.3 µg/mL (≈ 2.46 µM) | > 64 µg/mL |  |  |  |  | 
17 | CCCCc1ccc(C(=O)N[C@@H](CCN)C(=O)N[C@@H](C)C(=O)N(C)[C@@H]2C(=O)N[C@@H](C)C(=O)N[C@H](C(=O)NCC#N)Cc3ccc(OCCN)c(c3)-c3cc2ccc3OCCN)c(C)c1 [Compound 380] |  | 4 µg/mL (≈ 4.53 µM) |  | > 4 µg/mL | 64 µg/mL (≈ 72.5 µM) |  |  | 
18 | CCCCc1ccc(C(=O)N[C@@H](CCO)C(=O)N[C@@H](CCN)C(=O)N(C)[C@@H]2C(=O)N[C@@H](C)C(=O)N[C@H](C(=O)NCC#N)Cc3ccc(OCCN)c(c3)-c3cc2ccc3OCCN)c(C)c1 [Compound 382] |  | 0.5 µg/mL (≈ 0.548 µM) |  | 0.5 µg/mL (≈ 0.548 µM) | 64 µg/mL (≈ 70.1 µM) |  |  | 
19 | CCCCCCCCCC(=O)N[C@@H](CCC(N)=O)C(=O)N[C@@H](CCN)C(=O)N(C)[C@@H]1C(=O)N[C@@H](C)C(=O)N[C@H](C(=O)NCC#N)Cc2ccc(OCCN)c(c2)-c2cc1ccc2OCCN [Compound 385] |  | 0.5 µg/mL (≈ 0.543 µM) |  | 0.25 µg/mL (≈ 0.272 µM) | 32 µg/mL (≈ 34.8 µM) |  |  | 
20 | CCCCCCCCCC(=O)N[C@@H](CCNC(C)=O)C(=O)N[C@@H](CCN)C(=O)N(C)[C@@H]1C(=O)N[C@@H](C)C(=O)N[C@H](C(=O)NCC#N)Cc2ccc(OCCN)c(c2)-c2cc1ccc2OCCN [Compound 386] |  | 0.5 µg/mL (≈ 0.535 µM) |  | 0.38 µg/mL (≈ 0.407 µM) | 64 µg/mL (≈ 68.5 µM) |  |  | 
21 | CCCCCCCCCCCC(=O)N[C@@H](CC(=O)O)C(=O)N[C@@H](CN)C(=O)N(C)[C@@H]1C(=O)N[C@@H](C)C(=O)N[C@H](C(=O)NCC#N)Cc2ccc(OCCN)c(c2)-c2cc1ccc2OCCN [Compound 387] |  | 0.38 µg/mL (≈ 0.413 µM) |  | 0.25 µg/mL (≈ 0.271 µM) | 64 µg/mL (≈ 69.5 µM) |  |  | 
22 | CCCCCCCCCC(=O)N(C)[C@@H](CO)C(=O)N[C@@H](CCN)C(=O)N(C)[C@@H]1C(=O)N[C@@H](C)C(=O)N[C@H](C(=O)NCC#N)Cc2ccc(OCCN)c(c2)-c2cc1ccc2OCCN [Compound 388] |  | 0.25 µg/mL (≈ 0.28 µM) |  | 0.25 µg/mL (≈ 0.28 µM) | 48 µg/mL (≈ 53.7 µM) |  |  | 
23 | CCCCCCCc1ccc(C(=O)N(C)[C@@H](CCN)C(=O)N(C)[C@@H]2C(=O)N[C@@H](C)C(=O)N[C@H](C(=O)NCC#N)Cc3ccc(OCCN)c(c3)-c3cc2ccc3OCCN)cc1 [Compound 396] |  |  |  |  |  | 0.094 µg/mL (≈ 0.11 µM) | 0.094 µg/mL (≈ 0.11 µM) | 16 µg/mL (≈ 18.7 µM)
24 | CCCCc1ccc(C(=O)N(C)[C@@H](CCN)C(=O)N(C)[C@@H]2C(=O)N[C@@H](C)C(=O)N[C@H](C(=O)NCC#N)Cc3ccc(OCCN)c(c3)-c3cc2ccc3OCCN)c(C)c1 [Compound 397] | 3 µg/mL (≈ 3.63 µM) | 0.38 µg/mL (≈ 0.46 µM) | 64 µg/mL (≈ 77.5 µM) |  |  |  |  | 
